Structures can show the parent of a compound that is named as a salt.
These molecules were tested against BIR3 domain of XIAP (Homo sapiens (Human), UniProt P98170) (assay: TR-FRET assay for BIR3 (inhibition of binding to Peptide A)). Conditions: 6x His-tagged BIR3 domain (aa 241-356 of XIAP), 20 nM Peptide A, 10 concentrations.
Method: TR-FRET Assay for BIR2 and BIR3
Percentage of inhibition at each concentration was determined to generate an IC50 value for each test compound.

Sequence of BIR3 domain of XIAP (P98170 other isoform, or with tags, fused parts or gaps): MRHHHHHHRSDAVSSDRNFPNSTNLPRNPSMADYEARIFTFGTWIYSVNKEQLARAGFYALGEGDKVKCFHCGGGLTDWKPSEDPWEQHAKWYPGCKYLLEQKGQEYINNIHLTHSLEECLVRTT

`CN[C@@H](C)C(=O)N[C@H]1CCc2ccccc2N(Cc2cc(F)ccc2OC)C1=O` [Example 1a, (S)—N—[(S)-1-(5-Fluoro-2-methoxy-benzyl)-2-oxo-2,3,4,5-tetrahydro-1H-benzo[b]azepin-3-yl]-2-methylamino-propionamide hydrochloride] and `CN[C@@H](C)C(=O)N[C@H]1CCc2ccccc2N(Cc2cc(Br)ccc2OC)C1=O` [Example 1e, (S)—N—[(S)-1-(5-Bromo-2-methoxy-benzyl)-2-oxo-2,3,4,5-tetrahydro-1H-benzo[b]azepin-3-yl]-2-methylamino-propionamide hydrochloride] cannot be ordered by IC50: > 54.8 µM for the first, > 54.8 µM for the second.

`CN[C@@H](C)C(=O)N[C@H]1CCc2ccccc2N(Cc2nn(C)c3ccccc23)C1=O` [Example 1b, (S)-2-Methylamino-N—[(S)-1-(1-methyl-1H-indazol-3-ylmethyl)-2-oxo-2,3,4,5-tetrahydro-1H-benzo[b]azepin-3-yl]-propionamide hydrochloride] and `CN[C@@H](C)C(=O)N[C@H]1CCc2ccccc2N(Cc2noc3ccccc23)C1=O` [Example 1k, (S)—N—((S)-1-Benzo[d]isoxazol-3-ylmethyl-2-oxo-2,3,4,5-tetrahydro-1H-benzo[b]azepin-3-yl)-2-methylamino-propionamide hydrochloride] cannot be ordered by IC50: > 54.8 µM for the first, > 54.8 µM for the second.

`CN[C@@H](C)C(=O)N[C@H]1CCc2ccccc2N(Cc2cc(C(F)(F)F)ccc2OC)C1=O` [Example 1c, (S)—N—[(S)-1-(2-Methoxy-5-trifluoromethyl-benzyl)-2-oxo-2,3,4,5-tetrahydro-1H-benzo[b]azepin-3-yl]-2-methylamino-propionamide hydrochloride] and `CN[C@@H](C)C(=O)N[C@H]1CCc2ccccc2N(Cc2cc(Cl)ccc2OC)C1=O` [Example 1f, (S)—N—[(S)-1-(5-Chloro-2-methoxy-benzyl)-2-oxo-2,3,4,5-tetrahydro-1H-benzo[b]azepin-3-yl]-2-methylamino-propionamide hydrochloride] cannot be ordered by IC50: > 54.8 µM for the first, > 54.8 µM for the second.

`CN[C@@H](C)C(=O)N[C@H]1CCc2ccccc2N(Cc2cc(F)c(F)cc2OC)C1=O` [Example 1d, (S)—N—[(S)-1-(4,5-Difluoro-2-methoxy-benzyl)-2-oxo-2,3,4,5-tetrahydro-1H-benzo[b]azepin-3-yl]-2-methylamino-propionamide hydrochloride] and `CN[C@@H](C)C(=O)N[C@H]1CCc2ccccc2N(Cc2ccc(Cl)cc2OC)C1=O` [Example 1i, (S)—N—[(S)-1-(4-Chloro-2-methoxy-benzyl)-2-oxo-2,3,4,5-tetrahydro-1H-benzo[b]azepin-3-yl]-2-methylamino-propionamide hydrochloride] cannot be ordered by IC50: > 54.8 µM for the first, > 54.8 µM for the second.

`CN[C@@H](C)C(=O)N[C@H]1CCc2ccccc2N(Cc2cc(F)ccc2F)C1=O` [Example 1g, (S)—N—[(S)-1-(2,5-Difluoro-benzyl)-2-oxo-2,3,4,5-tetrahydro-1H-benzo[b]azepin-3-yl]-2-methylamino-propionamide hydrochloride] and `CN[C@@H](C)C(=O)N[C@H]1CCc2ccccc2N(Cc2cc(Cl)ccc2F)C1=O` [Example 1m, (S)—N—[(S)-1-(5-Chloro-2-fluoro-benzyl)-2-oxo-2,3,4,5-tetrahydro-1H-benzo[b]azepin-3-yl]-2-methylamino-propionamide hydrochloride] cannot be ordered by IC50: > 54.8 µM for the first, > 51.5 µM for the second.

`CN[C@@H](C)C(=O)N[C@H]1CCc2ccccc2N(Cc2c(F)c(F)c(F)c(F)c2F)C1=O` [Example 1h, (S)-2-Methylamino-N—((S)-2-oxo-1-pentafluorophenylmethyl-2,3,4,5-tetrahydro-1H-benzo[b]azepin-3-yl)-propionamide hydrochloride] and `CN[C@@H](C)C(=O)N[C@H]1CCc2ccccc2N(Cc2cncn2C)C1=O` [Example 2i, (S)-2-Methylamino-N—[(S)-1-(3-methyl-3H-imidazol-4-ylmethyl)-2-oxo-2,3,4,5-tetrahydro-1H-benzo[b]azepin-3-yl]-propionamide hydrochloride] cannot be ordered by IC50: > 54.8 µM for the first, > 54.8 µM for the second.

Compared with `CN[C@@H](C)C(=O)N[C@H]1CCc2ccccc2N(Cc2ccc(Br)cc2OC)C1=O` [Example 1j, (S)—N—[(S)-1-(4-Bromo-2-methoxy-benzyl)-2-oxo-2,3,4,5-tetrahydro-1H-benzo[b]azepin-3-yl]-2-methylamino-propionamide hydrochloride], `CN[C@@H](C)C(=O)N[C@H]1CCc2ccccc2N(Cc2cc(I)ccc2OC)C1=O` [Example 1n, (S)—N—[(S)-1-(5-Iodo-2-methoxy-benzyl)-2-oxo-2,3,4,5-tetrahydro-1H-benzo[b]azepin-3-yl]-2-methylamino-propionamide hydrochloride] is lower in IC50: > 54.8 µM for the first, 43 µM for the second.

`CN[C@@H](C)C(=O)N[C@H]1CCc2ccccc2N(Cc2cc(Cl)ccc2Cl)C1=O` [Example 1l, (S)—N—[(S)-1-(2,5-Dichloro-benzyl)-2-oxo-2,3,4,5-tetrahydro-1H-benzo[b]azepin-3-yl]-2-methylamino-propionamide hydrochloride] and `CN[C@@H](C)C(=O)N[C@H]1CCc2ccccc2N(Cc2ccncc2)C1=O` [Example 2h, (S)-2-Methylamino-N—((S)-2-oxo-1-pyridin-4-ylmethyl-2,3,4,5-tetrahydro-1H-benzo[b]azepin-3-yl)-propionamide hydrochloride] cannot be ordered by IC50: > 54.8 µM for the first, > 54.8 µM for the second.

`CN[C@@H](C)C(=O)N[C@H]1CCc2ccccc2N(Cc2cc(C(C)C)ccc2OC)C1=O` [Example 1o, (S)—N—[(S)-1-(5-Isopropyl-2-methoxy-benzyl)-2-oxo-2,3,4,5-tetrahydro-1H-benzo[b]azepin-3-yl]-2-methylamino-propionamide hydrochloride] and `CN[C@@H](C)C(=O)N[C@H]1CCc2ccccc2N(Cc2cccs2)C1=O` [Example 2a, (S)-2-(Methylamino)-N—((S)-2-oxo-1-(thiophen-2-ylmethyl)-2,3,4,5-tetrahydro-1H-benzo[b]azepin-3-yl)propanamide hydrochloride] cannot be ordered by IC50: > 51.5 µM for the first, > 51.5 µM for the second.

`CN[C@@H](C)C(=O)N[C@H]1CCc2ccccc2N(Cc2ccsc2)C1=O` [Example 2b, (S)-2-Methylamino-N—((S)-2-oxo-1-thiophen-3-ylmethyl-2,3,4,5-tetrahydro-1H-benzo[b]azepin-3-yl)-propionamide hydrochloride] and `CN[C@@H](C)C(=O)N[C@H]1CCc2ccccc2N(Cc2cccnc2)C1=O` [Example 2f, (S)-2-Methylamino-N—((S)-2-oxo-1-pyridin-3-ylmethyl-2,3,4,5-tetrahydro-1H-benzo[b]azepin-3-yl)-propionamide hydrochloride] cannot be ordered by IC50: > 51.5 µM for the first, > 51.5 µM for the second.

`CN[C@@H](C)C(=O)N[C@H]1CCc2ccccc2N(Cc2cncs2)C1=O` [Example 2c, (S)-2-Methylamino-N—((S)-2-oxo-1-thiazol-5-ylmethyl-2,3,4,5-tetrahydro-1H-benzo[b]azepin-3-yl)-propionamide hydrochloride] and `CN[C@@H](C)C(=O)N[C@H]1CCc2ccccc2N(Cc2cnco2)C1=O` [Example 2e, (S)-2-Methylamino-N—((S)-1-oxazol-5-ylmethyl-2-oxo-2,3,4,5-tetrahydro-1H-benzo[b]azepin-3-yl)-propionamide hydrochloride] cannot be ordered by IC50: > 51.5 µM for the first, > 54.8 µM for the second.

`CN[C@@H](C)C(=O)N[C@H]1CCc2ccccc2N(Cc2nccs2)C1=O` [Example 2d, (S)-2-Methylamino-N—((S)-2-oxo-1-thiazol-2-ylmethyl-2,3,4,5-tetrahydro-1H-benzo[b]azepin-3-yl)-propionamide hydrochloride] and `CN[C@@H](C)C(=O)N[C@H]1CCc2ccccc2N(Cc2ccccn2)C1=O` [Example 2g, (S)-2-Methylamino-N—((S)-2-oxo-1-pyridin-2-ylmethyl-2,3,4,5-tetrahydro-1H-benzo[b]azepin-3-yl)-propionamide hydrochloride] cannot be ordered by IC50: > 54.8 µM for the first, > 54.8 µM for the second.

Compared with `CC[C@H](N)C(=O)N[C@H]1CCc2ccccc2N(Cc2c(OC)cnc3ccccc23)C1=O` [Example 3, (S)-2-amino-N—((S)-1-((3-methoxyquinolin-4-yl)methyl)-2-oxo-2,3,4,5-tetrahydro-1H-benzo[b]azepin-3-yl)butanamide], `CC[C@H](NCCO)C(=O)N[C@H]1CCc2ccccc2N(Cc2c(OC)cnc3ccccc23)C1=O` [Example 4, (S)-2-(2-Hydroxyethylamino)-N—((S)-1-((3-methoxyquinolin-4-yl)methyl)-2-oxo-2,3,4,5-tetrahydro-1H-benzo[b]azepin-3-yl)butanamide] is higher in IC50: 49.9 µM for the first, > 54.8 µM for the second.

`CC[C@H](N)C(=O)N[C@@H]1CCc2ccccc2N(Cc2c(OC)ccc3cc(Br)ccc23)C1=O` [Example 5a, (S)-2-Amino-N—[(R)-1-(6-bromo-2-methoxy-naphthalen-1-ylmethyl)-2-oxo-2,3,4,5-tetrahydro-1H-benzo[b]azepin-3-yl]-butyramide hydrochloride] and `COc1ccc2cc(Br)ccc2c1CN1C(=O)[C@@H](NC(=O)[C@@H](N)[C@H](C)O)CCc2ccccc21` [Example 10, (2S,3S)-2-Amino-N—((S)-1-((6-bromo-2-methoxynaphthalen-1-yl)methyl)-2-oxo-2,3,4,5-tetrahydro-1H-benzo[b]azepin-3-yl)-3-hydroxybutanamide hydrochloride] cannot be ordered by IC50: > 54.8 µM for the first, > 54.8 µM for the second.

Going from `CC[C@H](NCCO)C(=O)N[C@H]1CCc2ccccc2N(Cc2c(OC)ccc3cc(Br)ccc23)C1=O` [Example 6, (S)—N—((S)-1-((6-Bromo-2-methoxynaphthalen-1-yl)methyl)-2-oxo-2,3,4,5-tetrahydro-1H-benzo[b]azepin-3-yl)-2-(2-hydroxyethylamino)butanamide] to `CC[C@H](NC1COC1)C(=O)N[C@H]1CCc2ccccc2N(Cc2c(OC)ccc3cc(Br)ccc23)C1=O` [Example 9, (S)—N—((S)-1-((6-Bromo-2-methoxynaphthalen-1-yl)methyl)-2-oxo-2,3,4,5-tetrahydro-1H-benzo[b]azepin-3-yl)-2-(oxetan-3-ylamino)butanamide], the IC50 rises from 39.7 µM to > 54.8 µM. The first is the more potent here.

With `CC[C@H](NCc1ccccc1)C(=O)N[C@H]1CCc2ccccc2N(Cc2c(OC)ccc3cc(Br)ccc23)C1=O` [Example 8, (S)-2-(Benzylamino)-N—((S)-1-((6-bromo-2-methoxynaphthalen-1-yl)methyl)-2-oxo-2,3,4,5-tetrahydro-1H-benzo[b]azepin-3-yl)butanamide] the IC50 was > 54.8 µM.

Source: US9611224B2 (Hoffmann-La Roche Inc., priority 2012, dated 2017)
